Data taken from ChEMBL document CHEMBL1129119, “N-Benzylated benzimidazol-2-one derivatives: activators of large-conductance Ca2+-dependent K+ channels” (1996).

Assay: Tested for maxi-K channel opening property using two -electrode voltage clamp recording from Xenopus laevis oocytes at 20 uM
Type: functional, frog, Oocyte

Row | SMILES | Control current [%]
1 | Oc1ccc(Cl)cc1Cn1c(O)nc2cnccc21 | 107.2
2 | O=c1[nH]c2cc(C(F)(F)F)ccc2n1-c1cc(Cl)ccc1O | 131.8
3 | Oc1ccc(Cl)cc1Cn1c(O)nc2cc(Br)ccc21 | 135.7
4 | Oc1ccccc1CCn1c(O)nc2cc(C(F)(F)F)ccc21 | 119.5
5 | Oc1ccc(Cl)cc1Cn1c(O)nc2cc(Cl)ccc21 | 150.1
6 | Oc1ccc(Cl)cc1Cn1c(O)nc2ccc(Br)cc21 | 107.9
7 | Oc1ccc(Cl)cc1Cn1c(O)nc2cc(Cl)c(Cl)cc21 | 145.8
8 | Oc1ccc(Cl)cc1Cn1c(O)nc2ccncc21 | 100.8
9 | Oc1ccc(Cl)cc1Cn1c(O)nc2ccc(Cl)cc21 | 116.3
10 | O=[N+]([O-])c1ccc2c(c1)nc(O)n2Cc1cc(Cl)ccc1O | 163.1
11 | COc1ccc(Cl)cc1Cn1c(O)nc2ccccc21 | 104.2
12 | Oc1ccc2c(c1)nc(O)n2Cc1cc(Cl)ccc1O | 106
13 | Oc1ccc(Cl)cc1Cn1c(O)nc2cc(I)ccc21 | 120.2
14 | Cc1ccc2c(c1)nc(O)n2Cc1cc(Cl)ccc1O | 101.9
15 | Oc1ccccc1Cn1c(O)nc2cc(C(F)(F)F)ccc21 | 126
16 | O=c1[nH]c2cc(C(F)(F)F)ccc2n1Cc1cc(Cl)ccc1O | 133.4
17 | Oc1ccc(Cl)cc1Cn1c(O)nc2cc(F)ccc21 | 105.9
18 | Oc1ccc(Cl)cc1Cn1c(O)nc2ccccc21 | 110.9
19 | Oc1ccc(Cl)cc1Cn1c(O)nc2cc(Cl)cc(Cl)c21 | 118.3
